Laboratory results: US20230093861A1, “RAPAMYCIN ANALOGS AS MTOR INHIBITORS” (Revolution Medicines, Inc., priority 2017, published 2023)
Read-outs that look alike come from different tables or passages of the source.

Legend:
[1] = system: P-P70S6K (T389); experiment: Cell based AlphaLISA assay, inhibition of P-P70S6K (T389) (mTORC1 substrate phosphorylation) in MDA-MB-468 cells; conditions: Homo sapiens, 4 h, AlphaLISA, two to four hours at 37° C., read-out: pIC50 for Inhibition of mTORC1 and mTORC2 Substrate Phosphorylation, P-P70S6K-(T389) (converted)
How it was run: (§1)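 After treatment, cells were lysed in the kit's buffer once assay medium was withdrawn. Duplicate Alpha measurements tracked each phospho-epitope, and dose-response data were fitted to IC50 following normalization to control wells.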

[2] = system: P-4E-BP1 (T37/46); experiment: Cell based AlphaLISA assay, inhibition of P-4E-BP1 (T37/46) (mTORC1 substrate phosphorylation) in MDA-MB-468 cells; conditions: Homo sapiens, AlphaLISA, two to four hours at 37° C., read-out: pIC50 for Inhibition of mTORC1 and mTORC2 Substrate Phosphorylation, P-4E-BP1-(T37/46) (converted)
How it was run: as §1

[3] = system: P-Akt (S473); experiment: Cell based AlphaLISA assay, inhibition of P-Akt (S473) (mTORC2 substrate phosphorylation) in MDA-MB-468 cells; conditions: Homo sapiens, AlphaLISA, two to four hours at 37° C., read-out: pIC50 for Inhibition of mTORC1 and mTORC2 Substrate Phosphorylation, p-AKT 1/2/3 -(S473) (converted)
How it was run: as §1

SMILES | IC50 [1] | IC50 ([2]; MDA-MB-468, 4 h) | IC50 ([3]; MDA-MB-468, 4 h) | IC50 ([2]; 4 h) | IC50 ([3]; 4 h)
CCO[C@@H]1C[C@@H]([C@H](C)C[C@@H]2CC[C@H](n3cc(CCCC(=O)NCCOCCOCCOCCC(=O)NCCOCCOCCOCCC(=O)NCCCCn4nc(-c5ccc6oc(N)nc6c5)c5c(N)ncnc54)nn3)[C@H](OC)C2)OC(=O)[C@@H]2CCCCN2C(=O)C(=O)[C@]2(O)O[C@@H](CC[C@H]2C)C[C@H](OC)/C(C)=C/C=C/C=C/[C@@H](C)C[C@@H](C)C(=O)[C@H](OC)[C@H](O)/C(C)=C/[C@H]1C [Example 167] | 1 to 10 nM | 31.6 to 1000 nM | 31.6 to 1000 nM |  | 
CO[C@H]1C[C@@H]2CC[C@@H](C)[C@@](O)(O2)C(=O)C(=O)N2CCCC[C@H]2C(=O)O[C@H]([C@H](C)C[C@@H]2CC[C@@H](O)[C@H](OC)C2)C[C@@H](OC)[C@H](C)/C=C(\C)[C@@H](O)[C@@H](OC)/C(=N\OCc2cn(CCOCCOCCOCCOCCOCCOCCC(=O)NCCCCn3nc(-c4ccc5oc(N)nc5c4)c4c(N)ncnc43)nn2)[C@H](C)C[C@H](C)/C=C/C=C/C=C/1C [Example 15] | 1 to 10 nM | 3.16 to 31.6 nM | 31.6 to 1000 nM |  | 
CO[C@H]1C[C@@H]2CC[C@@H](C)[C@@](O)(O2)C(=O)C(=O)N2CCCC[C@H]2C(=O)O[C@H]([C@H](C)C[C@@H]2CC[C@H](n3cc(CCCC(=O)N(C)CCOCCOCCOCCC(=O)N(C)CCOCCOCCC(=O)N(C)CCCCn4nc(-c5ccc6oc(N)nc6c5)c5c(N)ncnc54)nn3)[C@H](OC)C2)CC(=O)[C@H](C)/C=C(\C)[C@@H](O)[C@@H](OC)C(=O)[C@H](C)C[C@H](C)/C=C/C=C/C=C/1C [Example 180] | 1 to 10 nM | > 1000 nM | > 1000 nM |  | 
CO[C@H]1C[C@@H]2CC[C@@H](C)[C@@](O)(O2)C(=O)C(=O)N2CCCC[C@H]2C(=O)O[C@H]([C@H](C)C[C@@H]2CC[C@@H](OCCOCc3cn(CCOCCOCCOCCOCCOCCOCCOCCOCCC(=O)NCCCCn4nc(-c5cc6cc(O)ccc6[nH]5)c5c(N)ncnc54)nn3)[C@H](OC)C2)CC(=O)[C@H](C)/C=C(\C)[C@@H](O)[C@@H](OC)C(=O)[C@H](C)C[C@H](C)/C=C/C=C/C=C/1C [Example 53] | < 1 nM |  |  | < 3.16 nM | 3.16 to 31.6 nM
CO[C@H]1C[C@@H]2CC[C@@H](C)[C@@](O)(O2)C(=O)C(=O)N2CCCC[C@H]2C(=O)O[C@H]([C@H](C)C[C@@H]2CC[C@H](n3nncc3-c3cccc(-c4cnc(N5CCN(S(=O)(=O)CCc6cn(CCOCCOCCOCCC(=O)NCCCCn7nc(-c8ccc9oc(N)nc9c8)c8c(N)ncnc87)nn6)CC5)nc4)c3)[C@H](OC)C2)CC(=O)[C@H](C)/C=C(\C)[C@@H](O)[C@@H](OC)C(=O)[C@H](C)C[C@H](C)/C=C/C=C/C=C/1C [Example 35] | < 1 nM | < 3.16 nM | 3.16 to 31.6 nM |  | 
CO[C@H]1C[C@@H]2CC[C@@H](C)[C@@](O)(O2)C(=O)C(=O)N2CCCC[C@H]2C(=O)O[C@H]([C@H](C)C[C@@H]2CC[C@H](n3cc(COCCOCCOCCOCCC(=O)OCCOCCOCCOCCOCCC(=O)NCCCCn4nc(-c5ccc6oc(N)nc6c5)c5c(N)ncnc54)nn3)[C@H](OC)C2)CC(=O)C(C)/C=C(\C)[C@@H](O)[C@@H](OC)C(=O)[C@H](C)C[C@H](C)/C=C/C=C/C=C/1C (stereo in doubt) [Example 197] | 1 to 10 nM | 3.16 to 31.6 nM | 31.6 to 1000 nM |  | 
CO[C@H]1C[C@@H]2CC[C@@H](C)[C@@](O)(O2)C(=O)C(=O)N2CCCC[C@H]2C(=O)O[C@H]([C@H](C)C[C@@H]2CC[C@H](n3cc(-c4cnc(N5CCN(c6ncc(C(=O)NCCOCCOCCOCCOCCC(=O)NCCCCn7nc(-c8ccc9oc(N)nc9c8)c8c(N)ncnc87)cn6)CC5)nc4)nn3)[C@H](OC)C2)CC(=O)[C@H](C)/C=C(\C)[C@@H](O)[C@@H](OC)C(=O)[C@H](C)C[C@H](C)/C=C/C=C/C=C/1C [Example 115] | < 1 nM | < 3.16 nM | < 3.16 nM |  | 
